Broadly, the IC50 is the concentration at which inhibition is half-maximal. One may read the EC50 as the midpoint of the concentration-response curve.

Experimental findings from ChEMBL document CHEMBL3784917, “Recent Progress in Histone Demethylase Inhibitors” (J Med Chem, 2016) are described below.

In assay [1] the target is Lysine-specific demethylase 4E (Homo sapiens, UniProt B2RXH2). The experiment in a line: Inhibition of KDM4E (unknown origin) preincubated for 15 mins followed by histone substrate addition measured after 1 hr by alphascreen assay. (In general: Bead proximity is the source of the signal in Alpha formats.)
Assay [2] deals with T1, Lysine-specific demethylase 4A (Homo sapiens, UniProt O75164).
T1 sequence (O75164 whole entry): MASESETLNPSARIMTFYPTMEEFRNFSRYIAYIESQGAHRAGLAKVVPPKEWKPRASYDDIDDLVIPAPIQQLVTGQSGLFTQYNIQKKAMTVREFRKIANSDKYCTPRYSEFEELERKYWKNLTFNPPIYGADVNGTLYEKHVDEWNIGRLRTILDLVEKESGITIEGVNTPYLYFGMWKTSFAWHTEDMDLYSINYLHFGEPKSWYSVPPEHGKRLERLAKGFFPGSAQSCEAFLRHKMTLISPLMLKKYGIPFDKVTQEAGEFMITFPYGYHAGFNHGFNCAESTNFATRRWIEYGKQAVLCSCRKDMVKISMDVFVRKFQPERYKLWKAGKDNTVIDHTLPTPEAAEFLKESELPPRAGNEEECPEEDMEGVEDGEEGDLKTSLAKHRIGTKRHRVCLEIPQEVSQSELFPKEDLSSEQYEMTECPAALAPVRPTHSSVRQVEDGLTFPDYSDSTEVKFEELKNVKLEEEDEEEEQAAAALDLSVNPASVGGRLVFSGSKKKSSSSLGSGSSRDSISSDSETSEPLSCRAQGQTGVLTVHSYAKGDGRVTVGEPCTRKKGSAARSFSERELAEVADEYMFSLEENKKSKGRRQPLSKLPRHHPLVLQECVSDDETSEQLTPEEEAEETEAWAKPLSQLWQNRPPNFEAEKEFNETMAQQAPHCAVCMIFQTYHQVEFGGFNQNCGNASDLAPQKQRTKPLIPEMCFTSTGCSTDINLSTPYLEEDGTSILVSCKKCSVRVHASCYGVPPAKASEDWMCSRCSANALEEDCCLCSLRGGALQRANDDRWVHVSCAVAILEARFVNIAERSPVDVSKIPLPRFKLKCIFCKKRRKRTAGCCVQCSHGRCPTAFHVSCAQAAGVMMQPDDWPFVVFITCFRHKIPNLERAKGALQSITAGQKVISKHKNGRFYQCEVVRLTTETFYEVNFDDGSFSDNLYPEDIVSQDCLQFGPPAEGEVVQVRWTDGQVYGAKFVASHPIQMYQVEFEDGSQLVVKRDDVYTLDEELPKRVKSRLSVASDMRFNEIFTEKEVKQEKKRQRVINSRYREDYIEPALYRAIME
In words: Inhibition of KDM4A in human MCF7 cells assessed as increase in H3K9me3 level after 24 hrs by DAPI staining based immunofuorescence assay. The assay is classed as cell-based.

For assay [3], the target named is T2, Egl nine homolog 1 (Homo sapiens, UniProt Q9GZT9). The experiment in a line: Inhibition of PHD2 (unknown origin) preincubated for 15 mins followed by histone substrate addition measured after 1 hr by alphascreen assay.
In assay [4] the target is T3, Lysine-specific demethylase 5C (Homo sapiens, UniProt P41229). In words: Inhibition of KDM5C (unknown origin) preincubated for 15 mins followed by histone substrate addition measured after 1 hr by alphascreen assay.
For assay [5], the target named is T4, Lysine-specific demethylase 6B (Homo sapiens, UniProt O15054). In words: Inhibition of KDM6B (unknown origin) preincubated for 15 mins followed by histone substrate addition measured after 1 hr by alphascreen assay.
For assay [6], the target named is T5, Lysine-specific demethylase 4C (Homo sapiens, UniProt Q9H3R0).
T5 sequence (Q9H3R0 whole entry): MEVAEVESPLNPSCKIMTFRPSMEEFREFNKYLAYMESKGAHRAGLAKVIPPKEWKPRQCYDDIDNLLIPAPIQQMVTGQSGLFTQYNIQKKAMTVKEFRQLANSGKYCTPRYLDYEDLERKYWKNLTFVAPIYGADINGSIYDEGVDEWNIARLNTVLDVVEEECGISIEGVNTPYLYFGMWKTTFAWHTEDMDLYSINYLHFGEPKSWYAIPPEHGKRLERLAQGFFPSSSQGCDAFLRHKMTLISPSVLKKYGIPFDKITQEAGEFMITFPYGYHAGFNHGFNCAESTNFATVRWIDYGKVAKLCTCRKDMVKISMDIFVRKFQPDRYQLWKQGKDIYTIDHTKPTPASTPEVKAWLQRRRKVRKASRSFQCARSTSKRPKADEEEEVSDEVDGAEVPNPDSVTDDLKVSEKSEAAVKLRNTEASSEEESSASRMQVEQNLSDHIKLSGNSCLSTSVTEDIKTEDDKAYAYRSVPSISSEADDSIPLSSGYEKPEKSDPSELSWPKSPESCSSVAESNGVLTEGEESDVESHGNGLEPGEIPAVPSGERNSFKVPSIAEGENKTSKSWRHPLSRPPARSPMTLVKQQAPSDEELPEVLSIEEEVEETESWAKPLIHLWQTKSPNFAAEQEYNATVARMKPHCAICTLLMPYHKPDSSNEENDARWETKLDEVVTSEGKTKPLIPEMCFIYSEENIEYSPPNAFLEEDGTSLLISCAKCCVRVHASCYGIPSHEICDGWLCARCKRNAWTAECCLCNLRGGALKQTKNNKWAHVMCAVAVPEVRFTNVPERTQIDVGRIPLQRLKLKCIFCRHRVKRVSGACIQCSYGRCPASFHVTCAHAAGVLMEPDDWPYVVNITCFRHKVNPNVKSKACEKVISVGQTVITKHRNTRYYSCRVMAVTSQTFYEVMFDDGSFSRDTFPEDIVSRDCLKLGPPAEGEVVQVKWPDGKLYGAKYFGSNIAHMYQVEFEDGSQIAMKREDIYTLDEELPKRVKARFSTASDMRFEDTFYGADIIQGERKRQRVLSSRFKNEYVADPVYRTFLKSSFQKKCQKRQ
In words: Inhibition of KDM4C (unknown origin) preincubated for 15 mins followed by histone substrate addition measured after 1 hr by alphascreen assay.

The target in assay [7] is T3, Lysine-specific demethylase 5C. The experiment in a line: Inhibition of KDM5C (unknown origin) after 24 hrs by alphascreen assay.
For assay [8], the target named is T5, Lysine-specific demethylase 4C. The experiment in a line: Inhibition of KDM4C (unknown origin) using H3K9me3 as substrate after 24 hrs by alphascreen assay.
Assay [9] addresses T2, Egl nine homolog 1. The experiment in a line: Inhibition of PHD2 catalytic domain (unknown origin) after 24 hrs by alphascreen assay.
The target in assay [10] is T4, Lysine-specific demethylase 6B. In words: Inhibition of KDM6B (unknown origin) after 24 hrs by alphascreen assay.
For assay [11], the target named is T3, Lysine-specific demethylase 5C.
For assay [12], the target named is Lysine-specific demethylase 5B (Homo sapiens, UniProt Q9UGL1). In words: Inhibition of KDM5B in human U2OS cells assessed as reduction in demethylation of H3K4me3 after 20 hrs by Hoechst 33342 staining based immunofluorescence assay. The assay is classed as cell-based.
Assay [13] in a line: Antiproliferative activity against human BT474 cells assessed as reduction in cell viability after 120 hrs by ATPlite assay. Type of assay: functional, cell-based. Particulars: BT-474, 120 h.
Assay [14] in a line: Antiproliferative activity against human NALM6 cells assessed as reduction in cell viability after 120 hrs by ATPlite assay. The assay is classed as functional, cell-based. To be noted: NALM-6, 120 h. A general note: ATP-based viability assays read luminescence as a measure of living cells.
Assay [15] is described as follows: Antiproliferative activity against human KMS-12-BM cells assessed as reduction in cell viability after 120 hrs by ATPlite assay. Type of assay: functional, cell-based.

Molecules are shown by their SMILES. Where only a bound is given, the exact number is not on record here.

T3 sequence (P41229 whole entry): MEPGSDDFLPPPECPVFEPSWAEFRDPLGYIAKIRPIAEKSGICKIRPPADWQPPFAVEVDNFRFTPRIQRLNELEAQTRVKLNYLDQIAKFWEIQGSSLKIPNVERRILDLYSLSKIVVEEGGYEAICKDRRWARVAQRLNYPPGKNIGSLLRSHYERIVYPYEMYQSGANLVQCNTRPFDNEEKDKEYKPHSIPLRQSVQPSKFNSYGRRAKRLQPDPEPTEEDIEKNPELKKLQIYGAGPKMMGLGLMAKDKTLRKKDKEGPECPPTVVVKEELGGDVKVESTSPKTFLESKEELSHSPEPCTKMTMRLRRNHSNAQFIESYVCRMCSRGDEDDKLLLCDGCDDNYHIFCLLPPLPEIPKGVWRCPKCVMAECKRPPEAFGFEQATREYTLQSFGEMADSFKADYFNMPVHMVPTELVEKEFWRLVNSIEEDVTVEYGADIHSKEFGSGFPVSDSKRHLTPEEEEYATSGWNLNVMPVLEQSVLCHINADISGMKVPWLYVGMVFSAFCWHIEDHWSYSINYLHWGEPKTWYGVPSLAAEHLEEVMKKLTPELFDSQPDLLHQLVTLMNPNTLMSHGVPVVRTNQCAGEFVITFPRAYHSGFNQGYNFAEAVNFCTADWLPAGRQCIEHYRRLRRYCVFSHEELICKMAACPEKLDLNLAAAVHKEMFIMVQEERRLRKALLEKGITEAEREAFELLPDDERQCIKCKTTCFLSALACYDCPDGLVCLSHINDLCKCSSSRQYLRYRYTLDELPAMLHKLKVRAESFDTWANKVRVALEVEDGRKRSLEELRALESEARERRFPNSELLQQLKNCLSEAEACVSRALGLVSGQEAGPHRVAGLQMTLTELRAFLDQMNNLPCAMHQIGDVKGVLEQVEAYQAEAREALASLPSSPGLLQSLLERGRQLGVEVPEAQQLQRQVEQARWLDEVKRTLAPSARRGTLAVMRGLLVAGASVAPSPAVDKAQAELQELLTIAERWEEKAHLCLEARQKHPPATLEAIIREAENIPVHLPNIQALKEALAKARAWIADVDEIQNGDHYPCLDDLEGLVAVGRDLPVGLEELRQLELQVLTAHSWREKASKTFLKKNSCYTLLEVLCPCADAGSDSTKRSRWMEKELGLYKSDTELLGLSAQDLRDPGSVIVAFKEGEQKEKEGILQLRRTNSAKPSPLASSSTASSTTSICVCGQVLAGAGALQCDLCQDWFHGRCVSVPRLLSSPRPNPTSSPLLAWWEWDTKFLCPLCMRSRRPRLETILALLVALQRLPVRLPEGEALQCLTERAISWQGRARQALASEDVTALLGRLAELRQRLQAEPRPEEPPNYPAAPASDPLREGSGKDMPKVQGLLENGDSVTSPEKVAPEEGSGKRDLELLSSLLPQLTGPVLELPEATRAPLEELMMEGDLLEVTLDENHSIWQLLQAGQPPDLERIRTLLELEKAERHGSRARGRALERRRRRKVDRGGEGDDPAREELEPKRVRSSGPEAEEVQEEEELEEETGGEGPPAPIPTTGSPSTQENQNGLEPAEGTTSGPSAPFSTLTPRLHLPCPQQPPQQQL
T2 sequence (Q9GZT9 whole entry): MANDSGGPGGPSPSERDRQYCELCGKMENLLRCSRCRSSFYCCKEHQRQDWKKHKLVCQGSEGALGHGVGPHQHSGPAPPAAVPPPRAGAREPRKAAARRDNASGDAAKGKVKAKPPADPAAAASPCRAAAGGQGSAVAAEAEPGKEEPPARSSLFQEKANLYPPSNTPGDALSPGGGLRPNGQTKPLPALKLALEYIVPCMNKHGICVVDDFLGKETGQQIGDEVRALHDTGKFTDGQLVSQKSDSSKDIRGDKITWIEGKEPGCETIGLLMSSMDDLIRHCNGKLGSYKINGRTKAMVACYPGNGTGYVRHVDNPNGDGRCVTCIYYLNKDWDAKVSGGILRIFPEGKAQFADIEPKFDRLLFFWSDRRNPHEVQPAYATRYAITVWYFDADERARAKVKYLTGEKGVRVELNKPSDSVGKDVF
T4 sequence (O15054 whole entry): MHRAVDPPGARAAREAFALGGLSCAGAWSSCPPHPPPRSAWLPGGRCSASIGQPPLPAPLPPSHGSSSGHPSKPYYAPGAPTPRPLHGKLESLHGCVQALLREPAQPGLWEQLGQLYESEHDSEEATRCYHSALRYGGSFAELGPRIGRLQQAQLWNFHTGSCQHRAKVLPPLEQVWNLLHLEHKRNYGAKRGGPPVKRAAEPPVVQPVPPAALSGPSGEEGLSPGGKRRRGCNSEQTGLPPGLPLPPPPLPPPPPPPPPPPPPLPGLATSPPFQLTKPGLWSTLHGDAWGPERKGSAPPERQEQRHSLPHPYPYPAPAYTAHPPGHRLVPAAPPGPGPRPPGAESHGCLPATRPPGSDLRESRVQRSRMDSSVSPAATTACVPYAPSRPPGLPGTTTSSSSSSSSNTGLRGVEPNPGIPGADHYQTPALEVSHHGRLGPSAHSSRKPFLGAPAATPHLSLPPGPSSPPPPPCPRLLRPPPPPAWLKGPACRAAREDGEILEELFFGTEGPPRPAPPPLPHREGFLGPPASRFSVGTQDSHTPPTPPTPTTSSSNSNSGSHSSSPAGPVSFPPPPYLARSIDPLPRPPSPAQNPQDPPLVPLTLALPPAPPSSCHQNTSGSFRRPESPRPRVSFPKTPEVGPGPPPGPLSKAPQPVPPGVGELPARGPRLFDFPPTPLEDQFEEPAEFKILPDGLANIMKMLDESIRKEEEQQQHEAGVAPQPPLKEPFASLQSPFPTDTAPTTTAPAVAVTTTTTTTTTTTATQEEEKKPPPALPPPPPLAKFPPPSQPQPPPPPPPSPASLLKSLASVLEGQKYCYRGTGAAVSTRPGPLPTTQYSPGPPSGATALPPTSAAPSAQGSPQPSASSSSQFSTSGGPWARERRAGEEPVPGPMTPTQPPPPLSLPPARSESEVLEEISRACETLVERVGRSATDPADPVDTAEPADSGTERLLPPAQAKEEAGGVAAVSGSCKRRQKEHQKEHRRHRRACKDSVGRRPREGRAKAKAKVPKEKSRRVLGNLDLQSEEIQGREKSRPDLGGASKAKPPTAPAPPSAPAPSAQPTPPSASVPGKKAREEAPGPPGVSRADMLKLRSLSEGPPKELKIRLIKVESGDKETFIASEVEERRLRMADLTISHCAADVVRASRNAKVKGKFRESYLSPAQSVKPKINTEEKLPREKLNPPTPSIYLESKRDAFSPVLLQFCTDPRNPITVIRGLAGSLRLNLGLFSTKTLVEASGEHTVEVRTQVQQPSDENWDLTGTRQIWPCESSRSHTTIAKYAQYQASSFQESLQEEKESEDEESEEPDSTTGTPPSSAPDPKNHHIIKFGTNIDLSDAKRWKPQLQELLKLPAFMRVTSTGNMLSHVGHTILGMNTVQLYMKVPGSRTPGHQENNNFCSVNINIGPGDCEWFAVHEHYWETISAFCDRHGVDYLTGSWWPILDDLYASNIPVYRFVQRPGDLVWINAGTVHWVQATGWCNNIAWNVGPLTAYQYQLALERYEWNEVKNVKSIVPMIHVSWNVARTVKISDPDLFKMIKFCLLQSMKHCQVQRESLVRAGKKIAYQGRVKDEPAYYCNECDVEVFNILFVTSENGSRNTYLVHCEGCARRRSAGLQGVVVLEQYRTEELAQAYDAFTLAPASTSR
Sequence of Lysine-specific demethylase 4E (B2RXH2 whole entry): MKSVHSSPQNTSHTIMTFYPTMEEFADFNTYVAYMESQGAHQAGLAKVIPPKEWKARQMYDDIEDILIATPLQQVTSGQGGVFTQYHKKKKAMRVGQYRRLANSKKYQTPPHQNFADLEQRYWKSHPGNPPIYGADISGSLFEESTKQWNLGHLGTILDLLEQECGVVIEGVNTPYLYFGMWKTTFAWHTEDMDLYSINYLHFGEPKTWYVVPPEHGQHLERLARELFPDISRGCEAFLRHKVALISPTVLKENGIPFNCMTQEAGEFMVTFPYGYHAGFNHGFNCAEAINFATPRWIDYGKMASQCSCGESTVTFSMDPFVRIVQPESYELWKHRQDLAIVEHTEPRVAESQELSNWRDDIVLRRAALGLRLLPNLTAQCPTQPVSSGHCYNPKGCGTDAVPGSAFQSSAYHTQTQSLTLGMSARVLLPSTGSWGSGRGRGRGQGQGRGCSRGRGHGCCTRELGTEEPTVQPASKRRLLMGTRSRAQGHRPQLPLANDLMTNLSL

As to `Cc1ccsc1C(NC(=O)c1ccccc1)c1cc(Cl)c2cccnc2c1O` (racemic), the IC50 in assay [1] was 5 µM; at Egl nine homolog 1 [3], 96 µM; in assay [4] it was 178 µM; in [5] it was 106 µM; in assay [6] it was 5 µM. For the same compound, the EC50 in assay [2] amounted to 12 µM.
Turning to `CCCCCCCCOC(=O)c1ccc(O)c2ncccc12`, the IC50 in [7] is greater than 100 µM; in assay [8] it was 3.9 µM; at Egl nine homolog 1 [9], greater than 100 µM; in assay [10] it was greater than 100 µM.
Turning to `CCN(CCN(C)C)C(=O)CNCc1cc(C(=O)O)ccn1`, the IC50 in assay [11] and in [12] was 1 µM each time.
For `CCN(CC)CCCCNCc1cc(C=O)ccn1`, the EC50 in [13] and in assay [14] was less than 0.25 µM throughout.
In the case of `CCN(CCN(C)C)C(=O)CNCc1cc(CNC(=O)C(F)(F)F)ccn1`, the EC50 in [15] is less than 0.25 µM.
